Activity calls are given as the source filed them. The rule behind the calls is not given here.
Key:
[1] = test system: MDA-MB-231; experiment: Induction of apoptosis in human MDA-MB-231 cells assessed as early apoptotic cells at 2.5 uM incubated for 48 hrs by Annexin V-FITC/PI staining based flow cytometry (reference value: 1.71%); type: functional
[2] = test system: MDA-MB-231; experiment: Induction of apoptosis in human MDA-MB-231 cells assessed as increase in cleaved caspase-3 level at 0.5 to 12.5 uM incubated for 48 hrs by western blot analysis; type: functional, cell-based; conditions: dose 0.5-12.5 µM
[3] = test system: MDA-MB-231; experiment: Anticancer activity against human MDA-MB-231 cells xenografted in BALB/c mouse assessed as reduction in tumor volume at 5 mg/kg, ip administered for every 4 days for 7 times; type: functional, organism-based; conditions: time 28.0 day
[4] = test system: MDA-MB-231; experiment: Induction of cell cycle arrest in human MDA-MB-231 cells assessed as decrease in cyclin B1 expression at 0.5 to 12.5 uM incubated for 48 hrs by western blot analysis; type: functional, cell-based; conditions: dose 0.5-12.5 µM
[5] = Cytotoxicity against human MCF-10A cells assessed as inhibition of cell growth incubated for 72 hrs by MTT assay; type: toxicity, cell-based
[6] = test system: MDA-MB-231; experiment: Induction of cell cycle arrest in human MDA-MB-231 cells assessed as increase in p-cdc2 expression at 0.5 to 12.5 uM incubated for 48 hrs by Western blot analysis; type: functional, cell-based; conditions: dose 0.5-12.5 µM
[7] = test system: SK-OV-3; experiment: Cytotoxicity against human SK-OV-3 cells assessed as inhibition of cell growth incubated for 72 hrs by MTT assay; type: functional, cell-based; conditions: SK-OV-3, 72 h
[8] = test system: MDA-MB-231; experiment: Induction of apoptosis in human MDA-MB-231 cells assessed as apoptotic body formation by measuring change in cell morphology with disruption of cell nuclei incubated for 24 hrs by DAPI staining based confocal laser microscopy; type: functional; conditions: dose 0.5-12.5 µM
[9] = Toxicity in BALB/c mouse xenografted with human MDA-MB-231 cells assessed as effect on hemoglobin level at 1 to 5 mg/kg, ip administered every 4 days for 7 times measured at 48 hrs post-last administration; type: organism-based; conditions: in vivo, 720 h, dose 1-5 mg/kg, time 30 day
[10] = molecular target: Tubulin; experiment: Inhibition of tubulin polymerization (unknown origin) by turbidimetric analysis; type: protein-complex assay, Homo sapiens; conditions: read-out: IC50
[11] = molecular target: T1, Tubulin (Homo sapiens) (UniProt P68371+Q9H4B7+P0DPH7+P68366+Q13509+Q71U36+P04350+Q3ZCM7+P07437+P68363+Q9BQE3+Q6PEY2+Q13885+Q9BVA1+Q9BUF5); experiment: Inhibition of tubulin polymerization in human MDA-MB-231 cells assessed as cell shrinkage, increase in nuclear disruption and microtubule dispersion at 0.5 to 2.5 uM incubated for 48 hrs by immunofluorescence assay; type: cell-based; conditions: dose 0.5-2.5 µM
[12] = molecular target: Phosphatidylinositol 4,5-bisphosphate 3-kinase catalytic subunit gamma isoform (Homo sapiens, UniProt P48736); experiment: Inhibition of PI3KCG (unknown origin)
[13] = test system: HeLa; experiment: Cytotoxicity against human HeLa cells assessed as inhibition of cell growth incubated for 72 hrs by MTT assay; type: functional, cell-based
[14] = Toxicity in BALB/c mouse xenografted with human MDA-MB-231 cells assessed as effect on platelet count at 1 to 5 mg/kg, ip administered every 4 days for 7 times measured at 48 hrs post-last administration; type: organism-based; conditions: in vivo, 720 h, dose 1-5 mg/kg, time 30 day
[15] = Renal toxicity in BALB/c mouse xenografted with human MDA-MB-231 cells assessed as effect on blood urea nitrogen level at 1 to 5 mg/kg, ip administered every 4 days for 7 times measured at 48 hrs post-last administration; type: organism-based; conditions: in vivo, 720 h, dose 1-5 mg/kg, time 30 day
[16] = test system: MDA-MB-231; experiment: Induction of apoptosis in human MDA-MB-231 cells assessed as viable cells at 0.5 uM incubated for 48 hrs by Annexin V-FITC/PI staining based flow cytometry (reference value: 91.4%); type: functional; conditions: read-out: Activity
[17] = molecular target: Serine/threonine-protein kinase pim-1 (Homo sapiens, UniProt P11309); experiment: Inhibition of PIM-1 (unknown origin)
[18] = test system: HepG2; experiment: Cytotoxicity against human HepG2 cells assessed as inhibition of cell growth incubated for 72 hrs by MTT assay; type: functional, cell-based; conditions: HepG2, 72 h
[19] = test system: MDA-MB-231; experiment: Inhibition of colony formation in human MDA-MB-231 cells measured after 10 days by crystal violet staining based analysis; type: functional, cell-based; conditions: dose 0.5-12.5 µM, time 10.0 day
[20] = molecular target: T1, Tubulin (Homo sapiens); experiment: Inhibition of tubulin polymerization (unknown origin) at 10 uM by turbidimetric analysis; type: protein-complex assay
[21] = test system: MDA-MB-231; experiment: Induction of cell cycle arrest in human MDA-MB-231 cells assessed as proportion of cells at G2/M phase at 2.5 uM incubated for 48 hrs by propidium iodide staining based flow cytometry (reference value: 9.81%); type: functional
[22] = test system: MDA-MB-231; experiment: Induction of apoptosis in human MDA-MB-231 cells assessed as increase in cleaved PARP level at 0.5 to 12.5 uM incubated for 48 hrs by western blot analysis; type: functional, cell-based; conditions: dose 0.5-12.5 µM
[23] = test system: MDA-MB-231; experiment: Induction of apoptosis in human MDA-MB-231 cells assessed as necrotic cells at 0.5 uM incubated for 48 hrs by Annexin V-FITC/PI staining based flow cytometry (reference value: 1.86%); type: functional
[24] = test system: MDA-MB-231; experiment: Anticancer activity against human MDA-MB-231 cells xenografted in BALB/c mouse assessed as reduction in tumor weight at 5 mg/kg, ip administered for every 4 days for 7 times; type: functional, organism-based; conditions: time 28.0 day
[25] = test system: MDA-MB-231; experiment: Induction of apoptosis in human MDA-MB-231 cells assessed as early apoptotic cells at 0.5 uM incubated for 48 hrs by Annexin V-FITC/PI staining based flow cytometry (reference value: 1.71%); type: functional
[26] = Hepatotoxicity in BALB/c mouse xenografted with human MDA-MB-231 cells assessed as effect on blood ALT level at 1 to 5 mg/kg, ip administered every 4 days for 7 times measured at 48 hrs post-last administration; type: toxicity, organism-based; conditions: in vivo, 720 h, dose 1-5 mg/kg, time 30 day
[27] = test system: MDA-MB-231; experiment: Induction of apoptosis in human MDA-MB-231 cells assessed as late apoptotic cells at 12.5 uM incubated for 48 hrs by Annexin V-FITC/PI staining based flow cytometry (reference value: 5.06%); type: functional
[28] = Toxicity in BALB/c mouse xenografted with human MDA-MB-231 cells assessed as change in spleen morphological changes at 1 to 5 mg/kg, ip administered every 4 days for 7 times measured at 48 hrs post-last administration by H and E staining based fluorescence microscopic analysis; type: organism-based; conditions: in vivo, 720 h, dose 1-5 mg/kg, time 30 day
[29] = test system: MDA-MB-231; experiment: Induction of apoptosis in human MDA-MB-231 cells assessed as viable cells at 12.5 uM incubated for 48 hrs by Annexin V-FITC/PI staining based flow cytometry (reference value: 91.4%); type: functional; conditions: read-out: Activity
[30] = test system: MDA-MB-231; experiment: Induction of apoptosis in human MDA-MB-231 cells assessed as early apoptotic cells at 12.5 uM incubated for 48 hrs by Annexin V-FITC/PI staining based flow cytometry (reference value: 1.71%); type: functional
[31] = test system: MDA-MB-231; experiment: Induction of apoptosis in human MDA-MB-231 cells assessed as viable cells at 2.5 uM incubated for 48 hrs by Annexin V-FITC/PI staining based flow cytometry (reference value: 91.4%); type: functional; conditions: read-out: Activity
[32] = molecular target: T1, Tubulin (Homo sapiens); experiment: Inhibition of tubulin polymerization in human MDA-MB-231 cells assessed as blurred or disappeared nucleus and destruction of normal microtubule network at 12.5 uM incubated for 48 hrs by immunofluorescence assay; type: cell-based
[33] = Toxicity in BALB/c mouse xenografted with human MDA-MB-231 cells assessed as effect on WBC count at 1 to 5 mg/kg, ip administered every 4 days for 7 times measured at 48 hrs post-last administration; type: organism-based; conditions: in vivo, 720 h, dose 1-5 mg/kg, time 30 day

Sequence of Phosphatidylinositol 4,5-bisphosphate 3-kinase catalytic subunit gamma isoform (P48736 whole entry, canonical isoform): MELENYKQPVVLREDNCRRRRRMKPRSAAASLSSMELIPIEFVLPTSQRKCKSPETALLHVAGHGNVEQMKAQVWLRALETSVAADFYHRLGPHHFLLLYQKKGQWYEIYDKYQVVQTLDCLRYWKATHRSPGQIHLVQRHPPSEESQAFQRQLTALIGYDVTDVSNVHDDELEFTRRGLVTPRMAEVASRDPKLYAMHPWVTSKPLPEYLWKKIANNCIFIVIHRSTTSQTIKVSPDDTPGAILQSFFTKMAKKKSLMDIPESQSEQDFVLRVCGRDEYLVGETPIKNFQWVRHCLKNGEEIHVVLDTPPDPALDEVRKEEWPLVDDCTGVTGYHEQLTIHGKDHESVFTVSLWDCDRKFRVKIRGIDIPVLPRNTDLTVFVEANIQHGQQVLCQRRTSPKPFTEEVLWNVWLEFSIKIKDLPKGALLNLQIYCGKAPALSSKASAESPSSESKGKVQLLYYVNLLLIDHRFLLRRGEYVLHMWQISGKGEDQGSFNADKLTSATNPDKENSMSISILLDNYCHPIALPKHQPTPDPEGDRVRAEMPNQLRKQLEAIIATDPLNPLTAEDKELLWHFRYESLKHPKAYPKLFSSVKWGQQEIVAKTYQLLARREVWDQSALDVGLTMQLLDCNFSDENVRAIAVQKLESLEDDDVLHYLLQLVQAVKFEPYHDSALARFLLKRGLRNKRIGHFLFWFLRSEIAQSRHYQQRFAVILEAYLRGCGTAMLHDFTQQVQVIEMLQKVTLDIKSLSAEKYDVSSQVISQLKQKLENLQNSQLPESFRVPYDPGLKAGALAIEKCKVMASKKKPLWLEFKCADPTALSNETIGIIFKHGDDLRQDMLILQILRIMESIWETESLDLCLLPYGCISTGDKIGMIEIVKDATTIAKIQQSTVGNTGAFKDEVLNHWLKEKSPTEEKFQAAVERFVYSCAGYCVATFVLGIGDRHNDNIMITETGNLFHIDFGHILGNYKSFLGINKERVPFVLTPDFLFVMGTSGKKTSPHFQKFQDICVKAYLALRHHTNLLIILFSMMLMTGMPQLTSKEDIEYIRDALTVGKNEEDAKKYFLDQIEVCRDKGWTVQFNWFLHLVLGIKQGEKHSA
Sequence of Serine/threonine-protein kinase pim-1 (P11309 whole entry): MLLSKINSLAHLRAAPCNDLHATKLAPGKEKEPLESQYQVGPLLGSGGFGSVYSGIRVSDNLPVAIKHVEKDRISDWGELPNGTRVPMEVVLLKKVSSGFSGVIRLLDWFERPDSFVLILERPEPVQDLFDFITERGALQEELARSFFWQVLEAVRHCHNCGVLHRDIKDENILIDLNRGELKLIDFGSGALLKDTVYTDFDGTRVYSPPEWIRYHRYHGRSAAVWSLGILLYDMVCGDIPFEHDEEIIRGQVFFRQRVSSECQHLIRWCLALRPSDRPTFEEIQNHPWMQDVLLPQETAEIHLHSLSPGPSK

For O=c1[nH]c(/C=C/c2cccc(F)c2)nc2ccccc12, which Activity [1] is on record?
Its Activity is 2.23%.

What about the Activity [2] of the same compound?
Its Activity is “Active”.

And the Activity [3]?
The Activity was “Active”.

And the Activity [4]?
The Activity was “Active”.

What about the IC50 at 72 h [5] of the same compound?
Its IC50 at 72 h is > 10000 nM.

And the Activity [6]?
The Activity was “Active”.

What about the IC50 [7] of the same compound?
The IC50 was 1700 nM.

And the Activity [8]?
The Activity was “Dose-Dependent Effect”.

What about the Activity [9] of the same compound?
The Activity was “Non-Toxic”.

What about the IC50 [10] of the same compound?
Its IC50 is 940 nM.

What about the inhibition [11] of the same compound?
The inhibition was “Active”.

And the IC50 [12]?
Its IC50 is > 10000 nM.

What about the IC50 [13] of the same compound?
The IC50 was 1500 nM.

And the Activity [14]?
The Activity was “Non-Toxic”.

What about the Activity [15] of the same compound?
Its Activity is “Non-Toxic”.

And the viability at 0.5 µM [16]?
The viability at 0.5 µM was 90.6%.

And the IC50 [17]?
The IC50 was > 10000 nM.

And the IC50 [18]?
Its IC50 is 900 nM.

What about the inhibition [19] of the same compound?
The inhibition was “Dose-Dependent Effect”.

And the inhibition [20]?
The inhibition was 91%.

What about the Activity [21] of the same compound?
The Activity was 33.56%.

And the Activity [22]?
The Activity was “Active”.

What about the Activity [23] of the same compound?
The Activity was 0.88%.

And the Activity [24]?
Its Activity is “Active”.

What about the Activity [25] of the same compound?
Its Activity is 2.16%.

What about the Activity [26] of the same compound?
The Activity was “Non-Toxic”.

What about the Activity [27] of the same compound?
The Activity was 8.97%.

And the Activity [28]?
Its Activity is “Non-Toxic”.

And the viability at 12.5 µM [29]?
The viability at 12.5 µM was 83.4%.

What about the Activity [30] of the same compound?
The Activity was 3.32%.

What about the viability at 2.5 µM [31] of the same compound?
The viability at 2.5 µM was 90.2%.

What about the inhibition [32] of the same compound?
The inhibition was “Active”.

What about the Activity [33] of the same compound?
Its Activity is “Non-Toxic”.
